Tests used:
HepG2 = assay: In vitro MTT (proliferation) assay; type: cell-based; settings: Homo sapiens, Liver
[1] = system: colon cancer cell line colo205; assay: Combination therapy MTT assay; type: cell-based, human
Protocol: (§1) Compound A-Xln combination therapy MTT assay results were investigated. 100 μl of cell suspension with a concentration of 5×10^4 cells/ml was added to each well of a 96-well plate, and place in a 37° C., 5% CO2 incubator. After 24 h, Compound A-Xln sample solution was added according to Table 13, 10 μl/well for double-duplicate wells. After 72 hours at 37° C. and 5% CO2 incubation, 20 μl of 5 mg/ml MTT solution was added to each well, then 100 µl/well of dissolving solution was added after 4 hours. The samples were put in an incubator, and a full-wavelength multifunctional enzyme label machine was used after dissolving. The OD value at 570 nm was measured.
(§2) Samples according to Table 14 were also tested for proliferation inhibitor of three colon cancer lines HT29, HCT116 and colo205 by Compound A-Xln, anti-colon cancer agent 5FU/O, and combination of Compound A-Xln and 5FU/O. The results are shown in FIGS. 15-17.

[2] = system: colon cancer cell line HT29; assay: Combination therapy MTT assay; type: cell-based, human
Protocol: as §1, §2

[3] = system: colon cancer cell line HCT116; assay: Combination therapy MTT assay; type: cell-based, human
Protocol: as §1, §2

A2780 = assay: In vitro MTT (proliferation) assay; type: cell-based; settings: Homo sapiens, Ovary
[4] = Stability of amorphous and crystalline form API at 60° C. (HPLC related substances); type: physicochemical
Protocol: The samples of amorphous and crystalline form API of Compound A were placed in clean containers and the environmental temperature was controlled at 60° C. The purity of amorphous (Compound A-Amp) and crystalline form (Compound A-Xln) of Compound A were tested at Day 0, Day 10 and Day 30. Samples of amorphous and crystalline form APIs were measured, and the appropriate amount of diluent was added to dissolve with sonication. The concentration was controlled at 0.2 mg/ml and the purification was determined by HPLC with UV detector at 230 nm. Results were listed in the table as follows and the fitted curve is in Drawing Sections as FIG. 6.

HL-60 = assay: In vitro MTT (proliferation) assay; type: cell-based; settings: Homo sapiens, Blood
[5] = system: breast cancer cell line BT474; assay: Combination therapy MTT assay; type: cell-based, human; settings: BT474, combined with aromatase inhibitors Anatrozole and Letrozole, 72 h
Protocol: as §1

[6] = system: breast cancer cell line MCF7; assay: Combination therapy MTT assay; type: cell-based, human; settings: MCF7, combined with aromatase inhibitors Anatrozole and Letrozole, 72 h
Protocol: as §1

BEL-7402 = assay: In vitro MTT (proliferation) assay; type: cell-based; settings: Homo sapiens, Liver
SMMC-7721 = assay: In vitro MTT (proliferation) assay; type: cell-based; settings: Homo sapiens, Liver
MDA-MB-231 = assay: In vitro MTT (proliferation) assay; type: cell-based; settings: Homo sapiens; Breast, MDA-MB-231; read-out: IC50
Protocol: (§3) The inhibitions of Compound A-Xln, Compound A-P-Xln and two chiral isomers (Compound R-A, Compound S-A) to cancer cell lines are tested via in vitro MTT assay. Cancer cell lines are selected from PANC-1, NCI-H157, MDA-MB-231, Hela, PC-3, BEL7404, MKN45, Ishikawa, Saos-2, SKOV3, SW579 and HCT116 cell lines. The IC50 values are in the micromole scale.
(§4) In vitro MTT (proliferation) assay was performed with compound from above examples to give following inhibition results: […]

Hela = assay: In vitro MTT (proliferation) assay; type: cell-based; settings: Homo sapiens; Cervix, Hela; read-out: IC50
Protocol: as §3, §4

SKOV3 = assay: In vitro MTT (proliferation) assay; type: cell-based; settings: Homo sapiens, SK-OV-3; Ovary, SKOV3; read-out: IC50
Protocol: as §3, §4

U937 = assay: In vitro MTT (proliferation) assay; type: cell-based; settings: Homo sapiens, U-937, Blood
Protocol: as §3, §4

HCT-116 = assay: In vitro MTT (proliferation) assay; type: cell-based; settings: Homo sapiens, Colon, read-out: IC50
Protocol: as §3, §4

K562 = assay: In vitro MTT (proliferation) assay; type: cell-based; settings: Homo sapiens, Blood
[7] = high temperature 60° C., 10 days
[8] = high temperature 60° C., 30 days

For COc1cc2c(Oc3ccc4[nH]c(C)cc4c3F)ccnc2cc1OCCN1CC(O)C2(CC2)C1 (centres unmarked) [Compound A-Xln, 5-(2-(4-(4-fluoro-2-methyl-1H-indol-5-yloxy)-6-methoxyquinolin-7-yloxy)ethyl)-5-azaspiro[2.4]-heptan-7-ol], the IC50 (HepG2) was 9.12 ± 3.06 µM, the “Inhibition activity in sequential dosing” value ([1]; colo205, Compound A-Xln and 5FU/O dosed Day 1/Day 2 in either order) was “higher activity on regimen of dosing chemotherapy agents first followed by dosing Compound A later” and the “Proliferation inhibition in combination” value ([1]; colo205, combined with 5FU/O) was “increased”. The “Inhibition activity in sequential dosing” value ([2]; HT29, Compound A-Xln and 5FU/O dosed Day 1/Day 2 in either order) was “higher activity on regimen of dosing chemotherapy agents first followed by dosing Compound A later”, the “Proliferation inhibition in combination” value ([2]; HT29, combined with 5FU/O) was “increased” and the “Inhibition activity in sequential dosing” value ([3]; HCT116, Compound A-Xln and 5FU/O dosed Day 1/Day 2 in either order) was “higher activity on regimen of dosing chemotherapy agents first followed by dosing Compound A later”. For the same molecule, the “Proliferation inhibition in combination” value ([3]; HCT116, combined with 5FU/O) was “increased”, the IC50 (A2780) was 2.63 ± 0.27 µM and the “Maximum impurities (%)” value ([4]; 0 day) was 0.032%. The “Total impurities (%)” value ([4]; 0 day) was 0.078%, the “Stability compared with the amorphous form” value ([4]; 60° C., up to 30 days) was “better stability than A-Amp” and the “Maximum impurities (%)” value [4, 7] was 0.039%. For the same molecule, the “Total impurities (%)” value [4, 7] was 0.115%, the “Maximum impurities (%)” value [4, 8] was 0.063% and the “Total impurities (%)” value [4, 8] was 0.194%. The IC50 (HL-60) was 1.98 ± 1.13 µM, the “Proliferation inhibition in combination” value [5] was “increased” and the “Proliferation inhibition in combination” value [6] was “increased”. The IC50 (BEL-7402) was 0.86 ± 0.15 µM, the IC50 (SMMC-7721) was 8.01 ± 2.53 µM and the IC50 (MDA-MB-231) was 7.77 ± 0.02 µM. For the same molecule, the IC50 (Hela) was 11.2 ± 2.71 µM, the IC50 (SKOV3) was 17.1 ± 0.55 µM and the IC50 (U937) was 10 ± 2.28 µM. The IC50 (HCT-116) was 11.7 ± 3.69 µM and the IC50 (K562) was 6.37 ± 2.56 µM.

Reference: patent publication US20230399313A1, “BIOLOGICAL ACTIVITIES OF 5-(2-(4-(4-FLUORO-2-METHYL-1H-INDOL-5-YLOXY)-6-METHOXYQUINOLIN-7-YLOXY)ETHYL)-5-AZASPIRO[2.4]-HEPTAN-7-OL CRYSTALLINE, PHOSPHORIC ACID SALT AND ITS ENANTIOMERS” (Advenchen Pharmaceuticals, LLC, priority 2022, published 2023)
